Columns and labels:
Wee1 kinase domain = biological target: T1, Wee1 kinase domain (Homo sapiens, UniProt P30291); test: Wee1 Kinase Biochemical Assay (ADP-Glo); settings: Wee1 kinase domain, 15 uM ATP, ADP-Glo
T1 construct: Wee1 kinase domain was purchased from Carna (catalog #05-177); purchased Carna 05-177
Procedure, shortened: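 Poly(Lys,Tyr 4:1) phosphorylation by the kinase domain is followed as ADP output (ADP-Glo) after 4 h at 25 °C, with ATP at 15 uM. Values are percent inhibition between vehicle and full-inhibition controls.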

[1] = system: phosphorylation of Cdc2 Y15 (Wee1 substrate) in A427 cells; test: Phosphorylated Cdc2 MSD Electrochemiluminescence Assay; assay type: cell-based; settings: Homo sapiens, A-427, pCDC2 MSD
Experimental: Phosphorylated Cdc2 MSD Electrochemiluminescence Assay
The effect of Wee1 inhibitors on cellular phosphorylation of the Wee1 substrate Cdc2 was determined using the following protocol:
A total of 40,000 A427 cells in 100 uL culture medium (1640 medium+10% Fetal bovine serum+1% Penicillin-Streptomycin) were plated in 96-well cell culture plates. 3-fold serial dilutions of test compounds were prepared in completed PBS at 25× final concentration. After 20 hours, the plates were removed and 4 μL of each were added to the cells and incubated with shaking for 30 minutes at 37° C., 5% CO2. Each concentration was tested in duplicate. After a total 6 hours incubation, plates were removed and centrifuged for 5 minutes and 100 uL of supernatant from each well was removed. Cells were washed with 200 μL PBS and lysed with 50 μL MSD lysis buffer (Meso Scale Diagnostics) supplied with 1× complete ULTRA cocktail inhibitor (Roche).
To detect phosphorylation of Cdc2 Y15, 30 μL of capture antibody solution (CST catalog #9116S 1:200) was added into each well of the MSD plate (MSD catalog #L15XB-6), sealed and incubated at 4° C. with shaking (450 rpm) overnight. The antibody solution was removed, wells blocked with BSA solution and plates washed three times with PBST, followed by addition of 30 μl of cell lysate per well. After 2 hours of incubation, plates were washed three times with PBST. 30 μL of 1× detection antibody solution (CST catalog #4539S 1:200) was then added to each well and incubated for 1 hour. Plates were washed three times with PBST and 30 μL of 1× secondary antibody solution (MSD, catalog #:R32AB-1, 1:5000) was added to each well and incubated for 1 hour. Plates were washed three times with PBST and 150 μL of 1× Read Buffer T (MSD, catalog #R92TC-1) was added to each well of the MSD plate. The electrochemiluminescence signal was measured on a MESO SECTOR S600 plate reader. The percentage of remaining phosphorylated Cdc2 signal was calculated following the equation below.
[formula] • HC (high control): Cells treated with DMSO • Cpds: Cells treated with test compounds • LC (low control): Cells treated with positive control Wee1 inhibitor

T1 sequence (P30291 299-569 limits assumed): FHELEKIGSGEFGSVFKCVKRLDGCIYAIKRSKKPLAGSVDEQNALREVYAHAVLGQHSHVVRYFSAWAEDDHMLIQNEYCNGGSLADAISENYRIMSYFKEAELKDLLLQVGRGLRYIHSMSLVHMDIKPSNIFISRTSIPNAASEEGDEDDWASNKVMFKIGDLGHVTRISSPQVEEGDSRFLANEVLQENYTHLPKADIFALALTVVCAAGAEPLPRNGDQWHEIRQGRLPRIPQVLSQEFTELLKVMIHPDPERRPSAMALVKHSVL

IC50 (Wee1 kinase domain) [nM] | IC50 [1] [nM] | SMILES
< 10 | 100 to 1000 | CNCc1cccc(N2c3nc(Nc4ccc(C5CCOCC5)nc4)ncc3[C@@]3(C)COC(C)(C)C[C@@H]23)n1 (single isomer, unassigned) [Example 56]
< 10 | < 100 | CNCc1cccc(N2c3nc(Nc4ccc([C@H]5CNC(=O)C5)cc4)ncc3[C@@]3(C)COC(C)(C)C[C@@H]23)n1 (single isomer, unassigned) [Example 61]
< 10 | 100 to 1000 | CNCc1cccc(N2c3nc(Nc4ccc([C@@H]5CNC(=O)C5)cc4)ncc3[C@@]3(C)COC(C)(C)C[C@@H]23)n1 (single isomer, unassigned) [Example 63]
< 10 | 100 to 1000 | CN=S1(=O)CCN(c2ccc(Nc3ncc4c(n3)N(c3cccc(CNC)n3)[C@@H]3CC(C)(C)OC[C@]43C)cc2)CC1 (single isomer, unassigned) [Example 65]
< 10 | 100 to 1000 | CNCc1cccc(N2c3nc(Nc4ccc([C@H]5CC(=O)N(C)C5)cc4)ncc3[C@@]3(C)COC(C)(C)C[C@@H]23)n1 (single isomer, unassigned) [Example 68]
< 10 | < 100 | CNCc1cccc(N2c3nc(Nc4ccc([C@@H]5CC(=O)N(C)C5)cc4)ncc3[C@@]3(C)COC(C)(C)C[C@@H]23)n1 (single isomer, unassigned) [Example 69]
< 10 | 100 to 1000 | CNCc1cccc(N2c3nc(Nc4ccc(C5CCN(C)CC5)c(C)c4)ncc3[C@@]3(C)COC(C)(C)C[C@@H]23)n1 (single isomer, unassigned) [Example 72]
< 10 | 100 to 1000 | CNCc1cccc(N2c3nc(Nc4ccc(C(C)(C)C)cc4)ncc3[C@@]3(C)COC(C)(C)C[C@@H]23)n1 (single isomer, unassigned) [Example 73]
< 10 | 100 to 1000 | CNCc1cccc(N2c3nc(Nc4ccc(C(C)(C)C(=O)N(C)C)cc4)ncc3[C@@]3(C)COC(C)(C)C[C@@H]23)n1 (single isomer, unassigned) [Example 76]
< 10 | 100 to 1000 | CNCc1cccc(N2c3nc(Nc4ccc([C@]5(C)CCN(C)C5=O)cc4)ncc3[C@@]3(C)COC(C)(C)C[C@@H]23)n1 (single isomer, unassigned) [Example 78]
< 10 | 100 to 1000 | CNCc1cccc(N2c3nc(Nc4ccc([C@@]5(C)CCN(C)C5=O)cc4)ncc3[C@@]3(C)COC(C)(C)C[C@@H]23)n1 (single isomer, unassigned) [Example 80]
< 10 | 100 to 1000 | CNCc1cccc(N2c3nc(Nc4ccc(C5(C)COC5)cc4)ncc3[C@]3(C)COC(C)(C)C[C@H]23)n1 (single isomer, unassigned) [Example 82]
< 10 | 100 to 1000 | CNCc1cccc(N2c3nc(Nc4ccc(C5(C)COC5)cc4)ncc3[C@@]3(C)COC(C)(C)C[C@@H]23)n1 (single isomer, unassigned) [Example 84]
< 10 | 100 to 1000 | CNCc1cccc(N2c3nc(Nc4ccc5c(c4)C(=O)N(C)CC5(C)C)ncc3[C@@]3(C)COC(C)(C)C[C@@H]23)n1 (single isomer, unassigned) [Example 92]
< 10 | 100 to 1000 | CNCc1cccc(N2c3nc(Nc4ccc(N5CCN(C)CC5)cc4)ncc3[C@@]3(C)COC(C)(C)C[C@@H]23)n1 (single isomer, unassigned) [Example 94]

SMILES | IC50 (Wee1 kinase domain) [nM] | IC50 [1] [nM]
CNCc1cccc(N2c3nc(Nc4ccc(N5C6CCC5COC6)c(C)c4)ncc3[C@@]3(C)COC(C)(C)C[C@@H]23)n1 (single isomer, unassigned) [Example 85] | < 10 | 100 to 1000
CNCc1cccc(N2c3nc(Nc4ccc(N5C6CCC5COC6)cc4)ncc3[C@@]3(C)COC(C)(C)C[C@@H]23)n1 (single isomer, unassigned) [Example 87] | < 10 | 100 to 1000
CNCc1cccc(N2c3nc(Nc4ccc(N5C6CCC5COC6)cc4)ncc3[C@]3(C)COC(C)(C)C[C@H]23)n1 (single isomer, unassigned) [Example 88] | < 10 | 100 to 1000

Source: patent US20260166039A1 (SCHRÖDINGER, INC., priority 2022, published 2026)
